Data set [1] concerns the target T1, human recombinant orexin-1 (hr-OX-1) receptor (Homo sapiens, UniProt O43613).
T1 construct: expressed in transfected cells; host or cells: CHO (CHO-hr-OX-1 cells), purified plasma membrane fraction
T1 sequence (O43613 1-425): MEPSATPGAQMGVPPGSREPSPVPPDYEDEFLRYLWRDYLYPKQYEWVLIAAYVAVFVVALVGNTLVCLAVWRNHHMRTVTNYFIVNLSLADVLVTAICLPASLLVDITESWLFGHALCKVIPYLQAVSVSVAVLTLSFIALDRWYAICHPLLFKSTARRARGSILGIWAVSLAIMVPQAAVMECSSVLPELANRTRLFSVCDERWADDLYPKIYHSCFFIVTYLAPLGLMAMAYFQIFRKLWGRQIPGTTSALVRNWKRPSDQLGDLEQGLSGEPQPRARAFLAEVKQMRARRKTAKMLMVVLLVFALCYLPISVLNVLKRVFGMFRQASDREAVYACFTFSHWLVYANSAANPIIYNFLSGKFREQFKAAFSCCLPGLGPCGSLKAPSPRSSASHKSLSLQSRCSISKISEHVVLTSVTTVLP
Nature of the data set: hr-125I-orexin-A radioligand competition binding, orexin-1 receptor. Particulars: displacement of 125I-orexin-A, CHO-hr-OX-1 plasmamembranes, 25° C., 60 minutes; read-out: Orex-1 IC50. How it is done:
(§1) In vitro radioligand binding assays were used for determination of the affinities of the compounds for both the orexin-1 and orexin-2 receptors.
(§2) In the frame of hr-^125I-orexin-A radioligand competition (displacement) experiments a fixed concentration of hr-^125I-orexin-A is incubated with increasing concentrations of unlabeled test compound in the presence of highly purified plasmamembranes bearing either the human recombinant orexin-1 (hr-OX-1) or the human recombinant orexin-2 (hr-OX-2) receptors. Specific binding of hr-^125I-orexin-A to plasmamembranes is measured at each concentrations of the unlabeled compound and thus a competition curve is generated. The concentration of unlabeled compound displacing 50% of specific binding (IC50) is calculated. In case of competitive interaction the binding affinity constant of the unlabeled compound (K1) is calculated according to the Cheng-Prusoff equation (K1=IC50/(1+L*/KD). Affinity of unlabeled compound for the receptor is equal to 1/K1.
(§3) Culturing the Chinese hamster ovarian cells expressing human recombinant orexin-1 or orexin-2 receptor proteins (CHO-hr-OX-1 or CHO-hr-OX-2 cells) was carried out in cell culture medium (MEM medium, supplemented with 40 mg/l prolin, 20 mg/l gentamycin, 300 mg/l geneticin, 10% dialysed fetal calf serum).
(§4) Adherent cells were plated into Greiner flasks (175 cm^2). 4-6 days later culture medium was removed and cells were scarped in calcium- and magnesium-free phosphate buffered saline (PBS, 20 ml/flask). The cell suspension was centrifuged at 1,000 g for 5 minutes (4° C.). The resulting pellet was resuspended and homogenized with a teflon pestle (4° C.), then layered onto a discontinuous sucrose gradient and centrifuged at 105,000 g. Plasmamembrane fraction accumulated in the interface between 14 and 34% sucrose layers was separated and pelleted by a further centrifugation step at 105,000 g for 60 min (4° C.). The final pellet was resuspended in binding assay buffer and stored at −80° C. up to the day of radioligand binding experiment.
(§5) For ^125I-orexin-A competition binding studies, aliquots of cell membrane fractions containing either hr-orexin-1 or hr-orexin-2 receptors were incubated with ^125I-orexin-A in binding assay buffer at 25° C. for 60 minutes. Nonspecific binding was defined by 1 μM hr-orexin-A in both cases.
(§6) Test compounds were dissolved at a concentration of 1 mM in dimethylsulfoxide (DMSO). Serial dilution series were prepared from stock solutions (100% DMSO) with binding assay buffer in such a way that each samples contained a final concentration of 1% of DMSO in the receptor binding reaction mixture. After the incubation, samples were filtered through Whatman GF/C glass fibre filters using a SKATRON cell harvester, and the filters were washed with 5 ml of ice-cold buffer The radioactivity remained on the filter was counted in a gamma counter (Wallac Automatic Gamma Counter 1470 Wizard).

Data set [2] addresses T2, human recombinant orexin-2 (hr-OX-2) receptor (Homo sapiens, UniProt O43614).
T2 construct: expressed in transfected cells; host or cells: CHO (CHO-hr-OX-2 cells), purified plasma membrane fraction
T2 sequence (O43614 1-444): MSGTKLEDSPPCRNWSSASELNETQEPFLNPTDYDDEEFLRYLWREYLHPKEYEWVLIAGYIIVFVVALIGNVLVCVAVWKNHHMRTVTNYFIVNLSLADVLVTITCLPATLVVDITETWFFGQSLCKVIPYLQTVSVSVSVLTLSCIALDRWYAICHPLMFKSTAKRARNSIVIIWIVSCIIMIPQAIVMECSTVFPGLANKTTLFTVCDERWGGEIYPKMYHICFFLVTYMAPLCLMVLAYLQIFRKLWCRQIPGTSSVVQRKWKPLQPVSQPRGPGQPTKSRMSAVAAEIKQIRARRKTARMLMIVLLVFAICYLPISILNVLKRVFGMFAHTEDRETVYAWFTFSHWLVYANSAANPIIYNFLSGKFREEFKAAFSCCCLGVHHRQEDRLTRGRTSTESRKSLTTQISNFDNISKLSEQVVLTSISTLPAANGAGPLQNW
Nature of the data set: hr-125I-orexin-A radioligand competition binding, orexin-2 receptor. Particulars: displacement of 125I-orexin-A, CHO-hr-OX-2 plasmamembranes, 25° C., 60 minutes; read-out: Orex-2 IC50. How it is done: as §1, §2, §3, §4, §5, §6

Regarding `CN(CC(O)c1cccc(O)c1)C(=O)c1cnc(NCc2cccs2)nc1-c1ccccc1` (centres unmarked) (hydrate or solvate) [Example 17, 4-Phenyl-2-[(thiophen-2-ylmethyl)amino]pyrimidine-5-carboxylic acid [2-hydroxy-2-(3-hydroxyphenyl)ethyl]methylamide], the melting point was 85 to 87 °C.
As to `CN(Cc1ccccc1)c1ncc(C(=O)N2CCCCC2C(O)c2ccccc2)c(-c2ccccc2)n1` (racemic), the 50% inhibitory concentration (IC50) in data set [1] was found to be 0.011 µM; in data set [2] it was 6.7 µM.
Take `CN(CC(O)c1cccc(OC(=O)C(C)(C)C)c1)C(=O)c1cnc(N(C)C)nc1-c1ccccc1Cl` (centres unmarked) [2,2-Dimethylpropionic acid 3-{2-[(2-dimethylamino-4-(2-chlorophenyl)pyrimidine-5-carbonyl)methylamino]1-hydroxyethyl}phenyl ester]: the IC50 came out at 0.03 µM in data set [1] and 2.9 µM in data set [2].
With `Cc1ccccc1-c1nc(N(C)Cc2ccccc2)ncc1C(=O)N(C)CC(O)c1cccc(O)c1` (centres unmarked) [2-(Benzylmethylamino)-4-(2-methylphenyl)pyrimidine-5-carboxylic acid [2-hydroxy-2-(3-hydroxyphenyl)ethyl]methylamide], the IC50 was 0.022 µM in data set [1] and 5.8 µM in data set [2].
As to `COc1ccccc1C(=O)Nc1cccc(C(O)CN(C)C(=O)c2cnc(N(C)C)nc2-c2ccccc2)c1` (centres unmarked) [2-Dimethylamino-4-phenylpyrimidin-5-carboxylic acid {2-hydroxy-2-[3-(2-methoxy-benzoylamino)phenyl]ethyl}methylamide], the IC50 in data set [1] amounted to 0.015 µM; in data set [2] it was 0.32 µM.
Turning to `CN(CC(O)c1cccc(OCc2ccccc2)c1)C(=O)c1cnc(N(C)C)nc1-c1ccccc1` (centres unmarked) [2-Dimethylamino-4-phenylpyrimidine-5-carboxylic acid [2-(3-benzyloxyphenyl)-2-hydroxyethyl]methylamide], the half-inhibitory concentration (IC50) in data set [1] was determined as 0.03 µM; in data set [2], 3.6 µM.
Turning to `CC(C(O)c1ccccc1)N(C)C(=O)c1cnc(NCc2ccccn2)nc1-c1ccccc1` (centres unmarked) [4-Phenyl-2-[(pyridin-2-ylmethyl)amino]pyrimidin-5-carboxylic acid (2-hydroxy-1-methyl-2-phenylethyl)methylamide], the results for the IC50 in data set [1] and in data set [2] were 0.012 µM and 5.4 µM, respectively.
`CN(CC(O)c1cccc(OCc2ccccc2)c1)C(=O)c1cnc(N(C)C)nc1-c1ccc(Cl)c(Cl)c1` (centres unmarked) [Example 59, 2-Dimethylamino-4-(3,4-dichlorophenyl)pyrimidine-5-carboxylic acid [2-(3-benzyloxyphenyl)-2-hydroxyethyl]methylamide]: the melting point is 68 to 70 °C.

The values are drawn from patent US7812031B2, “Pyrimidine derivatives as orexin receptor antagonists” (Sanofi-Aventis, priority 2004, dated 2010).
